Source: patent US20110236897A1, “NOVEL MARKERS FOR […] DISEASE CAUSED BY BRAIN INJURY AND USE THEREOF” (priority 2010, published 2011)
“Also recorded” adds a separate entry of the source.

Test system: cerebral cortex of F1 C57BL/6N mice
Test: Microarray expression profiling of F1 cerebral cortex after prenatal exposure to MDMA
[1] = F1 female, prenatal MDMA 20 mg/kg/day vs vehicle
[2] = F1 male, prenatal MDMA 20 mg/kg/day vs vehicle
[3] = common to F1 females and males, cerebral cortex, compared with control group, hydrochloride

Q: `CNC(C)Cc1ccc2c(c1)OCO2` (racemic) [MDMA] was tested. Which “differentially expressed genes after prenatal exposure to MDMA (female group)” value (F1 female cerebral cortex at 11 weeks, dams 20 mg/kg/day p.o. GD 6 to PND 21, vs vehicle, Welch's T-test P<0.05, 1.5 fold change cut-off) did it give?
A: 1,784 genes

Q: What about the “genes under-expressed in the female cerebral cortex” value [1] of the same compound?
A: 399 genes

Q: And the “genes up-regulated (over-expressed) in the female cerebral cortex” value [1]?
A: 1,385 genes

Q: And the “differentially expressed genes after prenatal exposure to MDMA (male group)” value (F1 male cerebral cortex at 11 weeks, dams 20 mg/kg/day p.o. GD 6 to PND 21, vs vehicle, Welch's T-test P<0.05, 1.5 fold change cut-off)?
A: 804 genes

Q: And the “genes under-expressed in the male cerebral cortex” value [2]?
A: 469 genes

Q: And the “genes up-regulated in the male cerebral cortex” value [2]?
A: 335 genes

Q: What about the “common genes selected from the differentially expressed genes of females and males” value (common to 1,784 genes of females and 804 genes of males) of the same compound?
A: 90 genes

Q: What about the “Expression change of the 1st to 36th genes of the 90 common genes” value [3] of the same compound?
A: reduced; also recorded: down-

Q: And the “Expression change of the 37th to 90th genes of the 90 common genes” value [3]?
A: up-

Q: And the “effect on transcriptomic configuration of the cerebral cortex among offspring” value (maternal ingestion during pregnancy and lactation, F1 generation, hydrochloride)?
A: considerably affected; also recorded: this change was permanent
